Results published in patent publication US5428182A, “Bile acid derivatives, process for their preparation and use of these compounds as pharmaceuticals” (Hoechst Aktiengesellschaft, priority 1992, dated 1995).

Molecular target: T1, Na^+ -dependent bile acid transport system (Oryctolagus cuniculus, UniProt Q28727)
T1 construct: Brush border membrane vesicles from the intestinal cells of the small intestine were prepared by the so-called Mg^2+ precipitation method; from tissue; host or cells: terminal ileum (terminal 7/10 of small intestine) of male New Zealand rabbits, brush border membrane vesicles
T1 sequence (Q28727 1-347): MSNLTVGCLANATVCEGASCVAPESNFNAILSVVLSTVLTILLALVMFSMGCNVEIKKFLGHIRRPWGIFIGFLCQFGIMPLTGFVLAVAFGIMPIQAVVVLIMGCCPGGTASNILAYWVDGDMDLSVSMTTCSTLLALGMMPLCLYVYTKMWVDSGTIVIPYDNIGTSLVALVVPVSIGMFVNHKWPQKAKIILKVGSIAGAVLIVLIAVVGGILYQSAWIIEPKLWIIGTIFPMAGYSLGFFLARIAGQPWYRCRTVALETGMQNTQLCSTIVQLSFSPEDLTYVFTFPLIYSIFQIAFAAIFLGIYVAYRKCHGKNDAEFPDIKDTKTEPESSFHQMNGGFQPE
Assay: inhibition of Na+-dependent [3H]-taurocholate absorption in brush border membrane vesicles of rabbit ileum (membrane filtration technique)
Format: biochemical
Conditions: 50 μM taurocholate, customarily 1 minute, pH 7.4; for IC50Na (TCDC) / IC50Na (Substance): quotient of IC50Na of the standard TCDC and of the substance, Na+-dependent transport (difference Na-T-B minus K-T-B); for IC50 (TCDC) / IC50 (Substance): quotient of IC50 of the standard taurochenodeoxycholate (TCDC) and of the substance
Experimental: The biological testing of the compounds according to the invention was carried out by determining the inhibition of [^3 H]-taurocholate absorption in brush border membrane vesicles of the rabbit ileum. The inhibition test was carried out as follows:
Brush border membrane vesicles from the intestinal cells of the small intestine were prepared by the so-called Mg^2+ precipitation method. Male New Zealand rabbits (2 to 2.5 kg body weight) were sacrificed by intravenous injection of 0.5 ml of an aqueous solution of 2.5 mg of tetracaine HCl, 100 T 61® and 25 mg of mebezonium iodide. The small intestine was removed and rinsed with ice-cold physiological saline solution. The terminal 7/10 of the small intestine (measured in the oral-rectal direction, i.e. the terminal ileum, which contains the active Na^+ -dependent bile acid transport system) were used for the preparation of the brush border membrane vesicles. The intestines were frozen under nitrogen at -80° C. in plastic bags. For the preparation of the membrane vesicles, the frozen intestines were thawed at 30° C. in a water bath. The mucosa was scraped off and suspended in 60 ml of ice-cold 12 mM tris/HCl buffer (pH 7.1)/300 mM mannitol, 5 mM EGTA/ 10 mg/l of phenylmethylsulfonyl fluoride/l mg/l of trypsin inhibitor from soybeans (32 U/mg)/0.5 mg/l of trypsin inhibitor from bovine lung (193 U/mg)/5 mg/l of bacitracin. After dilution to 300 ml with ice-cold distilled water, the suspension was homogenized using an Ultraturrax (18-rod, IKAWerk Staufen, FRG) for 3 minutes at 75% maximum power with ice-cooling. After addition of 3 ml of 1M MgCl2 solution (final concentration 10 mM), the homogenate was allowed to stand at 0° C. for exactly 1 minute. As a result of addition of Mg^2+, the cell membranes aggregate and precipitate with the exception of the brush border membranes. After centrifugation at 3000×g for 15 minutes (5000 rpm, SS-34 rotor), the precipitate is discarded and the supernatant which contains the brush border membranes is centrifuged at […] for 30 minutes (15,000 rpm, SS-34 rotor). The supernatant was discarded and the precipitate was rehomogenized in 60 ml of 12 mM tris/HCl buffer (pH 7.1)/60 mM mannitol/5 mM EGTA using a Potter Elvejhem homogenizer (Braun Melsungen, 900 rpm, 10 strokes). After addition of 0.1 ml of 1M MgCl2 solution and an incubation time of 15 minutes at 0° C., centrifugation was once more carried out at 3000×g for 15 minutes. The supernatant was then centrifuged again at 46,000×g (15,000 rpm, SS-34 rotor) for 30 minutes. The precipitate was taken up in 30 ml of 10 mM tris/hepes buffer (pH 7.4)/300 mM mannitol and homogeneously resuspended at 1000 rpm by 20 strokes in a Potter Elvejhem homogenizer. After centrifugation at 48,000×g (20,000 rpm, SS-34 rotor) for 30 minutes, the precipitate was taken up in 0.5 to 2 ml of tris/HEPES buffer (pH 7.4)/280mM mannitol (final concentration 20 mg/ml) and resuspended with the aid of a tuberculin syringe having a 27 gauge needle. The vesicles were either used immediately after preparation for transport investigations or stored in liquid nitrogen at -196° C. in 4 mg portions.
The absorption of substrates in the brush border membrane vesicles described above was determined by means of the so-called membrane filtration technique. 10 μl of the vesicle suspension (100 μg of protein) were pipetted as drops onto the wall of a polystyrene incubation tube (11×70 mm) which contained the incubation medium with the appropriate ligands (90 μl). The incubation medium contained 0.75 μl=0.75 μCi of [^3 H(G)]-taurocholate (specific activity: 2.1 Ci/mMol)/0.5 μl of 10 mM taurocholate/8.75 μl of sodium transport buffer (10 mM tris/HEPES (pH 7.4)/100 mM mannitol/100 mM NaCl) (Na-T-B) or 8.75 μl of potassium transport buffer (10 mM tris/hepes (pH 7.4)/100 mM mannitol/100 mM KCl) (K-T-B) and 80 μl of the inhibitor solution concerned, depending on the experiment, dissolved in Na-T buffer or K-T buffer. […]

SMILES: CC(CCC(=O)O)C1CCC2C3C(O)CC4CC(OCCNC(=O)C5C(C(=O)NCCOC6CCC7(C)C(C6)CC(O)C6C7CC(O)C7(C)C(C(C)CCC(=O)O)CCC67)C(C(=O)NCCOC6CCC7(C)C(C6)CC(O)C6C7CC(O)C7(C)C(C(C)CCC(=O)O)CCC67)C5C(=O)NCCOC5CCC6(C)C(C5)CC(O)C5C6CC(O)C6(C)C(C(C)CCC(=O)O)CCC56)CCC4(C)C3CC(O)C12C (stereo not shown) [Example 47]
- IC50Na (TCDC) / IC50Na (Substance): 0.23
- IC50 (TCDC) / IC50 (Substance): 0.24

SMILES: C[C@H](CCC(=O)O)[C@H]1CC[C@H]2[C@@H]3[C@H](O)C[C@@H]4C[C@@H](NC(=O)CCOCCCOCC(C)(COCCCOCCC(=O)N[C@H]5CC[C@@]6(C)[C@@H](C5)C[C@@H](O)[C@@H]5[C@@H]6C[C@H](O)[C@]6(C)[C@@H]([C@H](C)CCC(=O)O)CC[C@@H]56)COCCCOCCC(=O)N[C@H]5CC[C@@]6(C)[C@@H](C5)C[C@@H](O)[C@@H]5[C@@H]6C[C@H](O)[C@]6(C)[C@@H]([C@H](C)CCC(=O)O)CC[C@@H]56)CC[C@]4(C)[C@H]3C[C@H](O)[C@]12C [Example 11]
- IC50Na (TCDC) / IC50Na (Substance): 0.36
- IC50 (TCDC) / IC50 (Substance): 0.29

SMILES: C[C@H](CCC(=O)O)[C@H]1CC[C@H]2[C@@H]3[C@H](O)C[C@@H]4C[C@@H](OCCNC(=O)CCOCC(C)(COCCC(=O)NCCO[C@H]5CC[C@@]6(C)[C@@H](C5)C[C@@H](O)[C@@H]5[C@@H]6C[C@H](O)[C@]6(C)[C@@H]([C@H](C)CCC(=O)O)CC[C@@H]56)COCCC(=O)NCCO[C@H]5CC[C@@]6(C)[C@@H](C5)C[C@@H](O)[C@@H]5[C@@H]6C[C@H](O)[C@]6(C)[C@@H]([C@H](C)CCC(=O)O)CC[C@@H]56)CC[C@]4(C)[C@H]3C[C@H](O)[C@]12C [Example 10]
- IC50Na (TCDC) / IC50Na (Substance): 0.26
- IC50 (TCDC) / IC50 (Substance): 0.24

SMILES: CC(CCC(=O)O)C1CCC2C3C(O)CC4CC(OCCNC(=O)C5C(C(=O)NCCOC6CCC7(C)C(C6)CC(O)C6C7CC(O)C7(C)C(C(C)CCC(=O)O)CCC67)C(c6ccccc6)C5C(=O)NCCOC5CCC6(C)C(C5)CC(O)C5C6CC(O)C6(C)C(C(C)CCC(=O)O)CCC56)CCC4(C)C3CC(O)C12C (stereo not shown) [Example 45]
- IC50Na (TCDC) / IC50Na (Substance): 0.23
- IC50 (TCDC) / IC50 (Substance): 0.32

SMILES: C[C@H](CCC(=O)O)[C@H]1CC[C@H]2[C@@H]3[C@H](O)C[C@@H]4C[C@@H](OCCCCCCNC(=O)c5cc(C(=O)NCCCCCCO[C@H]6CC[C@@]7(C)[C@@H](C6)C[C@@H](O)[C@@H]6[C@@H]7C[C@H](O)[C@]7(C)[C@@H]([C@H](C)CCC(=O)O)CC[C@@H]67)cc(C(=O)NCCCCCCO[C@H]6CC[C@@]7(C)[C@@H](C6)C[C@@H](O)[C@@H]6[C@@H]7C[C@H](O)[C@]7(C)[C@@H]([C@H](C)CCC(=O)O)CC[C@@H]67)c5)CC[C@]4(C)[C@H]3C[C@H](O)[C@]12C [Example 21]
- IC50Na (TCDC) / IC50Na (Substance): 0.59
- IC50 (TCDC) / IC50 (Substance): 0.29

SMILES: C[C@H](CCC(=O)O)[C@H]1CC[C@H]2[C@@H]3[C@H](O)C[C@@H]4C[C@@H](OCCNC(=O)CCC(CCC(=O)NCCO[C@H]5CC[C@@]6(C)[C@@H](C5)C[C@@H](O)[C@@H]5[C@@H]6C[C@H](O)[C@]6(C)[C@@H]([C@H](C)CCC(=O)O)CC[C@@H]56)(CCC(=O)NCCO[C@H]5CC[C@@]6(C)[C@@H](C5)C[C@@H](O)[C@@H]5[C@@H]6C[C@H](O)[C@]6(C)[C@@H]([C@H](C)CCC(=O)O)CC[C@@H]56)[N+](=O)[O-])CC[C@]4(C)[C@H]3C[C@H](O)[C@]12C [Example 7]
- IC50Na (TCDC) / IC50Na (Substance): 0.34
- IC50 (TCDC) / IC50 (Substance): 0.29

SMILES: C[C@H](CCC(=O)O)[C@H]1CC[C@H]2[C@@H]3[C@H](O)C[C@@H]4C[C@@H](OCCCCCNC(=O)c5cc(C(=O)NCCCCCO[C@H]6CC[C@@]7(C)[C@@H](C6)C[C@@H](O)[C@@H]6[C@@H]7C[C@H](O)[C@]7(C)[C@@H]([C@H](C)CCC(=O)O)CC[C@@H]67)cc(C(=O)NCCCCCO[C@H]6CC[C@@]7(C)[C@@H](C6)C[C@@H](O)[C@@H]6[C@@H]7C[C@H](O)[C@]7(C)[C@@H]([C@H](C)CCC(=O)O)CC[C@@H]67)c5)CC[C@]4(C)[C@H]3C[C@H](O)[C@]12C [Example 20]
- IC50Na (TCDC) / IC50Na (Substance): 0.86
- IC50 (TCDC) / IC50 (Substance): 0.43

SMILES: C[C@H](CCC(=O)O)[C@H]1CC[C@H]2[C@@H]3[C@H](O)C[C@@H]4C[C@@H](NC(=O)[C@]5(C)C[C@](C)(C(=O)N[C@H]6CC[C@@]7(C)[C@@H](C6)C[C@@H](O)[C@@H]6[C@@H]7C[C@H](O)[C@]7(C)[C@@H]([C@H](C)CCC(=O)O)CC[C@@H]67)C[C@](C)(C(=O)N[C@H]6CC[C@@]7(C)[C@@H](C6)C[C@@H](O)[C@@H]6[C@@H]7C[C@H](O)[C@]7(C)[C@@H]([C@H](C)CCC(=O)O)CC[C@@H]67)C5)CC[C@]4(C)[C@H]3C[C@H](O)[C@]12C [Example 33]
- IC50Na (TCDC) / IC50Na (Substance): 1.04
- IC50 (TCDC) / IC50 (Substance): 0.77

SMILES: C[C@H](CCC(=O)O)[C@H]1CC[C@H]2[C@@H]3[C@H](O)C[C@@H]4C[C@@H](OCCCCCNC(=O)[C@]5(C)C[C@](C)(C(=O)NCCCCCO[C@H]6CC[C@@]7(C)[C@@H](C6)C[C@@H](O)[C@@H]6[C@@H]7C[C@H](O)[C@]7(C)[C@@H]([C@H](C)CCC(=O)O)CC[C@@H]67)C[C@](C)(C(=O)NCCCCCO[C@H]6CC[C@@]7(C)[C@@H](C6)C[C@@H](O)[C@@H]6[C@@H]7C[C@H](O)[C@]7(C)[C@@H]([C@H](C)CCC(=O)O)CC[C@@H]67)C5)CC[C@]4(C)[C@H]3C[C@H](O)[C@]12C [Example 31]
- IC50Na (TCDC) / IC50Na (Substance): 0.93
- IC50 (TCDC) / IC50 (Substance): 1.26

SMILES: C[C@H](CCC(=O)O)[C@H]1CC[C@H]2[C@@H]3[C@H](O)C[C@@H]4C[C@@H](OCCCCCCNC(=O)[C@]5(C)C[C@](C)(C(=O)NCCCCCCO[C@H]6CC[C@@]7(C)[C@@H](C6)C[C@@H](O)[C@@H]6[C@@H]7C[C@H](O)[C@]7(C)[C@@H]([C@H](C)CCC(=O)O)CC[C@@H]67)C[C@](C)(C(=O)NCCCCCCO[C@H]6CC[C@@]7(C)[C@@H](C6)C[C@@H](O)[C@@H]6[C@@H]7C[C@H](O)[C@]7(C)[C@@H]([C@H](C)CCC(=O)O)CC[C@@H]67)C5)CC[C@]4(C)[C@H]3C[C@H](O)[C@]12C [Example 16]
- IC50Na (TCDC) / IC50Na (Substance): 0.31
- IC50 (TCDC) / IC50 (Substance): 0.37

SMILES: C[C@H](CCC(=O)O)[C@H]1CC[C@H]2[C@@H]3[C@H](O)C[C@@H]4C[C@H](CCNC(=O)c5cc(C(=O)NCC[C@@H]6CC[C@@]7(C)[C@@H](C6)C[C@@H](O)[C@@H]6[C@@H]7C[C@H](O)[C@]7(C)[C@@H]([C@H](C)CCC(=O)O)CC[C@@H]67)cc(C(=O)NCC[C@@H]6CC[C@@]7(C)[C@@H](C6)C[C@@H](O)[C@@H]6[C@@H]7C[C@H](O)[C@]7(C)[C@@H]([C@H](C)CCC(=O)O)CC[C@@H]67)c5)CC[C@]4(C)[C@H]3C[C@H](O)[C@]12C [Example 18]
- IC50Na (TCDC) / IC50Na (Substance): 0.76
- IC50 (TCDC) / IC50 (Substance): 0.85
